In patent US6500845B1, “Lactam derivatives as immunomodulating agents” (Gruenenthal GmbH, priority 1994, dated 2002):
Values after ≈ are worked out from the molar mass of the structure shown.

Assays:
[1] = test system: TSST-1-induced release of TNF-α, human mononuclear cells; type: cell-based
[2] = test system: TSST-1-induced release of IFN-γ, human mononuclear cells; type: cell-based
[3] = test system: LPS-induced TNF-α release, human mononuclear cells; test: LPS-induced TNF-α release from human mononuclear cells of the peripheral blood; type: cell-based; details: 20 hours incubation; for IC50: Homo sapiens, LPS-induced, read-out: IC50 (50% inhibition in the release of TNF-α); for Inhibition of TNF-α release in (%): concentration of 50 μ/ml, LPS 2.5 μg
Source text: The release of cytokines from human mononuclear cells of the peripheral blood, i.e. T-cells, B-cells and monocytes, can be studied in vitro after stimulation by lipopolysaccharide (LPS) or the toxic shock syndrome toxin-1 (TSST-1). LPS is a component of the bacterial cell wall and stimulates monocytes and macrophages. TSST-1 is a bacterial superantigen that stimulates T-cells as well as monocytes/macrophages. Superantigens bind to the Vβ chain of the T-cell receptor and to the MHC class II and thus simulate the recognition by a specific T-cell receptor of an antigen presented by the MHC class II. Activation of cells by LPS or TSST-1 induces the release of TNF-α, IFN-γ and other cytokines.
Mononuclear cells were prepared from the heparinized blood of at least three voluntary donors. For this purpose, 20 ml blood samples each were separated according to well known procedures using a Ficoll-Paque gradient. The cells were harvested and washed three times with a cell culture medium. This cell culture medium was composed of RPMI 1640 medium supplemented with 2 mM of glutamine (Life Technologies, Eggenstein, Germany), 10% fetal calf serum (Life Technologies), 50 μg/ml of streptomycin (Sigma, Deisenhofen, Germany), 50 IU/ml of penicillin (Sigma) and 100 μM of b-mercaptoethanol (Merck, Darmstadt, Germany). The mononuclear cells were suspended in 15 ml of cell culture medium and separated in 1 ml fractions in sterile 24-well incubation plates (Sigma). 1 μl of dimethylsulfoxide (DMSO) or 1 μl of a DMSO-solution containing 5 ′ by weight of a compound according to the invention was added to each of the 1 ml fractions. After incubation for 1 hour in a CO2-incubator (5% CO2, 90% humidity), 2.5 μg of LPS (from E. coli 0127: B8, Sigma) or 0.1 μg of TSST-1 (Sigma) were added to each of the fractions containing a compound according to the invention. Incubation of the cultures was continued for 20 hours. The concentrations of TNF-α and IFN-γ in the cell culture supernatants were determined with commercial ELISA-tests (Boehringer Mannheim, Germany; Endogen, Boston, Mass.).
The IC50 value is the concentration in μg/ml which produces a 50% inhibition in the release of TFN-α.

[4] = test system: IL-2 release in vivo (T-lymphocytes stimulated by staphylococcal enterotoxin B); parameters: species or system Balb/c mice; details: mouse; for ED40 (dosage reducing serum IL-2 concentrations by 40%): ip

SMILES	Effect on TSST-1-induced release of TNF-α [1]	Effect on TSST-1-induced release of IFN-γ [2]	IC50 [3]	Inhibition of TNF-α release in (%) [3]	melting point	Maximum inhibition of serum IL-2 increase in % [4]	ED40 (dosage reducing serum IL-2 concentrations by 40%) [4]
CC1(N2Cc3ccccc3C2=O)CCC(=O)NC1=O (racemic) [Example 2, 3-Methyl-3-(1-oxo-1,3-dihydro-isoindol-2-yl)-piperidine-2,6-dione]	enhanced compared to thalidomide	enhanced compared to thalidomide	10 µg/mL (≈ 38.7 µM)	72 ± 8%	231 to 232 °C	56 ± 3%	112 mg/kg i.p.
CC1(N2Cc3ccccc3C2=O)CCC(=O)NC1=O (single isomer, unassigned; (-)) [Example 3 (−) enantiomer, (−)-3-Methyl-3-(1-oxo-1,3-dihydro-isoindol-2-yl)-piperidine-2,6-dione]			8 µg/mL (≈ 31 µM)	82 ± 5%		54 ± 5%	297 mg/kg i.p.
CC1(n2[se]c3ccccc3c2=O)CCCNC1=O (stereo not drawn) [Example 1, 2-(3-Methyl-2-oxo-piperidin-3-yl)-benzo[d]isoselenazol-3-one]				93 ± 1%		43 ± 5%	ca. 20^ mg/kg i.p.
CC1(n2sc3ccccc3c2=O)CCCNC1=O (stereo not drawn) [Example 4, 2-(3-methyl-2-oxo-piperidin-3-yl)-benzo[d]isothiazol-3-one]				93 ± 9%		52 ± 3%	<10 mg/kg i.p.
O=C1CCC(N2C(=O)c3ccccc3C2=O)C(=O)N1 (stereo not drawn) [Thalidomide, reference compound]			50 µg/mL (≈ 194 µM)	54 ± 7%		56 ± 10%	171 mg/kg i.p.
